In BindingDB's records for doi:10.1016/0166-4328(96)00087-3 (Smithkline Beecham Pharmaceuticals, 1996):
Values joined by “and” are separate entries in the source; they are usually repeats but may differ in a detail not shown here. Equal entries are not always repeated.

Columns and labels:
[1] = target: 5-hydroxytryptamine receptor 2A (Rattus norvegicus, UniProt P14842)
Histamine H1 receptor = Histamine H1 receptor (Cavia porcellus, UniProt P31389)
[2] = target: 5-hydroxytryptamine receptor 1B (Homo sapiens, UniProt P28222)
[3] = target: 5-hydroxytryptamine receptor 1E (Homo sapiens, UniProt P28566)
Chain of 5-hydroxytryptamine receptor 1E (P28566 whole entry): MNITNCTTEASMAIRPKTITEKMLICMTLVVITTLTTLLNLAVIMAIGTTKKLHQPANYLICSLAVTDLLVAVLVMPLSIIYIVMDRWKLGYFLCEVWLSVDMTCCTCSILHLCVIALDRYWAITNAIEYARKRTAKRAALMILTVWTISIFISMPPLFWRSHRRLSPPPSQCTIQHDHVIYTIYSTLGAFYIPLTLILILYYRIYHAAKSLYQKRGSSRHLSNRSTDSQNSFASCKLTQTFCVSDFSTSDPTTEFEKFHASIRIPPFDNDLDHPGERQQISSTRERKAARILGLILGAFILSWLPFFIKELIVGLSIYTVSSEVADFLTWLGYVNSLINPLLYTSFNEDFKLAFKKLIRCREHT

D(2) dopamine receptor [4] = target: D(2) dopamine receptor (Homo sapiens, UniProt P14416)
Chain of D(2) dopamine receptor (Homo sapiens, UniProt P14416) (P14416 whole entry): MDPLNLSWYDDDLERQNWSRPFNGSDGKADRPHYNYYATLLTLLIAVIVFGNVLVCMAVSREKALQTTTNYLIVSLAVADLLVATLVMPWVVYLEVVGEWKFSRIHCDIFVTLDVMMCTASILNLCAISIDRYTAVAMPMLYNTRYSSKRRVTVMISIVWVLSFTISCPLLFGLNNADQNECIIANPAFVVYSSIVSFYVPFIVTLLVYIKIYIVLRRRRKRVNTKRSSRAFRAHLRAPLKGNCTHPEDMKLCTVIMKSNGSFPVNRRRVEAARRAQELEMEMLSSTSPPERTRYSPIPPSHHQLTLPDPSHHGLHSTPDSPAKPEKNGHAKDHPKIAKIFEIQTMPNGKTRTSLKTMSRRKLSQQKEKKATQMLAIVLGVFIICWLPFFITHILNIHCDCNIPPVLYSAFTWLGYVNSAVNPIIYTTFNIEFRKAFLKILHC

[5] = target: Alpha-1A adrenergic receptor (Rattus norvegicus, UniProt P43140)
Chain of Alpha-1A adrenergic receptor (Rattus norvegicus, UniProt P43140) (P43140 whole entry): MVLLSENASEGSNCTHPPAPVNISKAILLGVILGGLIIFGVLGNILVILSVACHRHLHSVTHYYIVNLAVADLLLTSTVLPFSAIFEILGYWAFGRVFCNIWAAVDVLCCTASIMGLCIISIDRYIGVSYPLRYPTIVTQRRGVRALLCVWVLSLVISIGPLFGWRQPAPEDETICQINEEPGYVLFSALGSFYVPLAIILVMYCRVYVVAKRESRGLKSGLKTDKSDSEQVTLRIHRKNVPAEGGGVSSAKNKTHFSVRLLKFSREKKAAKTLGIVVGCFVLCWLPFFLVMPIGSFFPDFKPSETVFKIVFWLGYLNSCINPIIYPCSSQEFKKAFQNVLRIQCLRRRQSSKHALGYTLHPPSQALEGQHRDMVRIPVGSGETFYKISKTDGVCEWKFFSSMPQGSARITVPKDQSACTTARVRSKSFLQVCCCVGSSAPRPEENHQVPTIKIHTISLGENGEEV

D(1A) dopamine receptor [6] = target: D(1A) dopamine receptor (Homo sapiens, UniProt P21728)
[7] = target: Gamma-aminobutyric acid receptor subunit alpha-1 (Rattus norvegicus, UniProt P62813)
[8] = target: 5-hydroxytryptamine receptor 2B (Rattus norvegicus, UniProt P30994)
Chain of 5-hydroxytryptamine receptor 2B (P30994 whole entry): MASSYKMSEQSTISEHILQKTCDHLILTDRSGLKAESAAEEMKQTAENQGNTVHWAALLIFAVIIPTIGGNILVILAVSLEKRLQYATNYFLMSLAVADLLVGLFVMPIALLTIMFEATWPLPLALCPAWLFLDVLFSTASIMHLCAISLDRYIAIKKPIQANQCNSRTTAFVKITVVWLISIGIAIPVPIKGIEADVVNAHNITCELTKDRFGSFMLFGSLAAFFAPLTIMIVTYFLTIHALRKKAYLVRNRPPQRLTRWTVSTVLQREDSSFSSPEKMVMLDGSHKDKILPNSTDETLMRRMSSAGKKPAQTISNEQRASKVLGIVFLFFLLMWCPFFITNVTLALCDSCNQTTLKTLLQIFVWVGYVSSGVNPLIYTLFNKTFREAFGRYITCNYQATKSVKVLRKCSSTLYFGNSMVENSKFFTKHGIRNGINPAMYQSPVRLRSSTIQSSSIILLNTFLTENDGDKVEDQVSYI

[9] = target: 5-hydroxytryptamine receptor 2C (Sus scrofa, UniProt G7ZKZ7)
[10] = target: 5-hydroxytryptamine receptor 4 (Sus scrofa, UniProt Q29006)
Chain of 5-hydroxytryptamine receptor 4 (Q29006 whole entry): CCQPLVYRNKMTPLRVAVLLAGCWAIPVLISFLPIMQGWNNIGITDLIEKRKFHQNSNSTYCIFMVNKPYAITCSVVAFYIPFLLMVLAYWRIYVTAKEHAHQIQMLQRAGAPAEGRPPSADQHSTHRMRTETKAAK

[11] = target: Alpha-2C adrenergic receptor (Rattus norvegicus, UniProt P22086)
Chain of Alpha-2C adrenergic receptor (P22086 whole entry): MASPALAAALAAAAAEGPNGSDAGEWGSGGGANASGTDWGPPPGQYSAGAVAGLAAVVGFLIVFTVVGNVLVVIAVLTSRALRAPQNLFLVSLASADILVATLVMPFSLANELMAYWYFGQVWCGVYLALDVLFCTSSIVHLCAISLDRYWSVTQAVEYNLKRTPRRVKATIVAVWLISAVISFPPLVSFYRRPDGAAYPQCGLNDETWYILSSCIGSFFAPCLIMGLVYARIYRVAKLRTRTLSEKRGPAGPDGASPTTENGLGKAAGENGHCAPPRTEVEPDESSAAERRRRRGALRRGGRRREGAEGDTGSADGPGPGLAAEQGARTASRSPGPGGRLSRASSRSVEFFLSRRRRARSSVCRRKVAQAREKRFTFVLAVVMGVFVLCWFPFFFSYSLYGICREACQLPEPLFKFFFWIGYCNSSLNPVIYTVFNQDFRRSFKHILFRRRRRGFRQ

[12] = target: 5-hydroxytryptamine receptor 1D (Homo sapiens, UniProt P28221)
[13] = target: 5-hydroxytryptamine receptor 1A (Rattus norvegicus, UniProt P19327)
Chain of 5-hydroxytryptamine receptor 1A (P19327 whole entry): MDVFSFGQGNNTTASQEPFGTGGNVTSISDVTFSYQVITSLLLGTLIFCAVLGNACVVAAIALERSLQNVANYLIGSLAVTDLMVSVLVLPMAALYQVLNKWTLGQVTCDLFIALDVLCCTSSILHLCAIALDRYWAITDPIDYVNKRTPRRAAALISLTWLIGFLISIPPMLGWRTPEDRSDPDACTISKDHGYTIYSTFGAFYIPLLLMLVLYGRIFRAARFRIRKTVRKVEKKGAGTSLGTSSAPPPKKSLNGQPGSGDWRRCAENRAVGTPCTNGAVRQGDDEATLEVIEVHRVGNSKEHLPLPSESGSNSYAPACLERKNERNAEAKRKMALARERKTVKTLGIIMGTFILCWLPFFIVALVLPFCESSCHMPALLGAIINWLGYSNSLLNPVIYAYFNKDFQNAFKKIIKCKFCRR

D(2) dopamine receptor [14] = target: D(2) dopamine receptor (Rattus norvegicus, UniProt P61169)
[15] = target: 5-hydroxytryptamine 1D receptor (Bos taurus, UniProt Q8MI13)
[16] = target: 5-hydroxytryptamine receptor 1B (Oryctolagus cuniculus, UniProt P49144)
[17] = target: 5-hydroxytryptamine receptor 2A (Oryctolagus cuniculus, UniProt G1SYA7)
[18] = target: Alpha-1A adrenergic receptor (Oryctolagus cuniculus, UniProt O02824)
[19] = target: Beta-1 adrenergic receptor (Cavia porcellus, UniProt B0FL73)
[20] = target: Beta-2 adrenergic receptor (Sylvilagus floridanus, UniProt Q9BFY9)
Chain of Beta-2 adrenergic receptor (Sylvilagus floridanus, UniProt Q9BFY9) (Q9BFY9 whole entry): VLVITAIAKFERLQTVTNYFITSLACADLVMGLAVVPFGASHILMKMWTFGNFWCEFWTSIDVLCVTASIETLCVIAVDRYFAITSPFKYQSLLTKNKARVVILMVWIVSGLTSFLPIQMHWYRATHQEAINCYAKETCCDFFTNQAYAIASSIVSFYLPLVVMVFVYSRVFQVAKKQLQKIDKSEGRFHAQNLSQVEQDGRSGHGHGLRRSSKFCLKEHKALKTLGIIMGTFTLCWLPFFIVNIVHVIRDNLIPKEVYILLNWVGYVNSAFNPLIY

[21] = target: Muscarinic acetylcholine receptor M3 (Sus scrofa, UniProt P11483)
D(1A) dopamine receptor [22] = target: D(1A) dopamine receptor (Rattus norvegicus, UniProt P18901)
Chain of D(1A) dopamine receptor (Rattus norvegicus, UniProt P18901) (P18901 whole entry): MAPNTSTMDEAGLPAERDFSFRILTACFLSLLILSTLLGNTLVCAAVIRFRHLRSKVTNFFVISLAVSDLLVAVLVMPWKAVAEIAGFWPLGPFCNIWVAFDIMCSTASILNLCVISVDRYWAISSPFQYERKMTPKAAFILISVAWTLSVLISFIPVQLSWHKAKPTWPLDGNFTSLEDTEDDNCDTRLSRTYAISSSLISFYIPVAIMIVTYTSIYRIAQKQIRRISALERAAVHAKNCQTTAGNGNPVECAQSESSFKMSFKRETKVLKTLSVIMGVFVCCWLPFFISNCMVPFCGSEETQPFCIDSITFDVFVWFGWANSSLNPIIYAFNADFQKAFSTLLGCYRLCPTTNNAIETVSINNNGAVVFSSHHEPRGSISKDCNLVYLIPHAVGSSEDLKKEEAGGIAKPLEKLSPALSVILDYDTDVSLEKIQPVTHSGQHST

Histamine H2 receptor = Histamine H2 receptor (Oryctolagus cuniculus, UniProt G1TWL8)
[23] = target: Beta-1 adrenergic receptor (Rattus norvegicus, UniProt P18090)
[24] = target: 5-hydroxytryptamine receptor 2C (Rattus norvegicus, UniProt P08909)
[25] = target: 5-hydroxytryptamine receptor 1D (Cavia porcellus, UniProt Q60484)
[26] = target: 5-hydroxytryptamine receptor 3A (Rattus norvegicus, UniProt P35563)
[27] = target: Alpha-2B adrenergic receptor (Rattus norvegicus, UniProt P19328)
[28] = target: Beta-2 adrenergic receptor (Rattus norvegicus, UniProt P10608)
Chain of Beta-2 adrenergic receptor (Rattus norvegicus, UniProt P10608) (P10608 whole entry): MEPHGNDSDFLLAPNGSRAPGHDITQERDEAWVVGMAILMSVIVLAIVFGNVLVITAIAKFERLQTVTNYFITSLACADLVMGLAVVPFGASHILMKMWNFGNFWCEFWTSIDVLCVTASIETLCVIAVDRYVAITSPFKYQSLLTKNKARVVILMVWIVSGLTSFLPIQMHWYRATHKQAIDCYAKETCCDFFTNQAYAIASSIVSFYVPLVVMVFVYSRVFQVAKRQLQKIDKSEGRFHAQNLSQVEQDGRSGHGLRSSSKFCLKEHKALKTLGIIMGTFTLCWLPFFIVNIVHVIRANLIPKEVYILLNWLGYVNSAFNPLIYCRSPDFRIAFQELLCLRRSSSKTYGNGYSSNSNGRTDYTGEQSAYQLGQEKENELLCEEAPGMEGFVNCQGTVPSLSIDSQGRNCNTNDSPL

[29] = target: 5-hydroxytryptamine receptor 2C (Homo sapiens, UniProt P28335)
[30] = target: Alpha-2A adrenergic receptor (Homo sapiens, UniProt P08913)

Chain of 5-hydroxytryptamine receptor 2A (Rattus norvegicus, UniProt P14842) (P14842 whole entry): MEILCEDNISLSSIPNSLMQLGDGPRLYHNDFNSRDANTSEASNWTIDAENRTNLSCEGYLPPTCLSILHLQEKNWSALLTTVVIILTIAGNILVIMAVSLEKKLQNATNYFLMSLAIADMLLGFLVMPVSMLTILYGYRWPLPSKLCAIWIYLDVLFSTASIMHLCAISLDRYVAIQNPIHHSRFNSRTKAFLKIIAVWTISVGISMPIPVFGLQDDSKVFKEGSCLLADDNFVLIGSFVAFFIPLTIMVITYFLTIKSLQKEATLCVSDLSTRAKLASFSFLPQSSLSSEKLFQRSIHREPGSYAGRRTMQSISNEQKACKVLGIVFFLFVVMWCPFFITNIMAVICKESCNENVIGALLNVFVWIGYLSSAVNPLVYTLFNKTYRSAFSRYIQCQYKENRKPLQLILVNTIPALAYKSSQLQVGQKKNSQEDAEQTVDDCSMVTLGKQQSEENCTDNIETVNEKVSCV
Chain of Histamine H1 receptor (P31389 whole entry): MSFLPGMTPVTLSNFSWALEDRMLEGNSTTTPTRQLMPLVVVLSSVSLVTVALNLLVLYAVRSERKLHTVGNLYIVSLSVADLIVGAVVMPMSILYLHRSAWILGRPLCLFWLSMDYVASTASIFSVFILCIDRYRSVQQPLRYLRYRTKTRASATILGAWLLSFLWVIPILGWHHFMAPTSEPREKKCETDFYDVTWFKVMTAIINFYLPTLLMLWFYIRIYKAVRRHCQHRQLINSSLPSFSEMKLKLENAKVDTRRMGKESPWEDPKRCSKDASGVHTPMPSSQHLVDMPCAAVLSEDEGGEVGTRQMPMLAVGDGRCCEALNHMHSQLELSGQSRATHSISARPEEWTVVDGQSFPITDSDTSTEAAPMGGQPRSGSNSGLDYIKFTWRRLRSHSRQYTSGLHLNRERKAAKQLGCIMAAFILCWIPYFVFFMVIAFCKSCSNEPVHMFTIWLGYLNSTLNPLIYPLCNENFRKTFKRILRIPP

In the case of `Cc1cc(NC(=O)Nc2ccc3c(ccn3C)c2)sn1` [CAS_3277600], the Ki [1] is reported as 5.01 µM, the Ki (Histamine H1 receptor) is reported as > 10 µM and the Ki [2] is reported as > 10 µM. For the same molecule, the Ki [3] was > 10 µM, the Ki (D(2) dopamine receptor [4]) was > 10 µM and the Ki [5] was 1000 nM. For the same molecule, the Ki (D(1A) dopamine receptor [6]) was > 10 µM, the Ki [7] was > 10 µM and the Ki [8] was 15.9 nM and 50.1 nM. For the same molecule, the Ki [9] was 1000 nM, the Ki [10] was > 10 µM and the Ki [11] was 1000 nM.

For `CC(N)Cc1c[nH]c2ccc(OCc3cccs3)cc12` (stereo not drawn) [NSC_5311036], the Ki [1] was 3.98 µM, the Ki (Histamine H1 receptor) was > 10 µM and the Ki [12] was 251 nM. For the same molecule, the Ki [13] was 1260 nM, the Ki (D(2) dopamine receptor [14]) was > 10 µM and the Ki [15] was 501 nM. For the same molecule, the Ki [16] was > 10 µM, the Ki [17] was > 10 µM and the Ki [8] was 25.1 nM. The Ki [10] was > 10 µM, the Ki [18] was > 10 µM and the Ki [11] was > 10000 nM. The Ki [19] was > 10 µM, the Ki [20] was > 10 µM and the Ki [21] was > 10 µM. For the same molecule, the Ki (D(1A) dopamine receptor [22]) was > 10 µM and the Ki (Histamine H2 receptor) was > 10 µM.

For `Cn1ccc2cc(NC(=O)Nc3cccnc3)ccc21` [SB 200646], the Ki [1] was 6.31 µM and 5.01 µM, the Ki [13] was > 10000 nM and the Ki [23] was > 10 µM. For the same molecule, the Ki (D(2) dopamine receptor [4]) was > 10 µM, the Ki [5] was > 10000 nM and the Ki [24] was 126 nM. The Ki [25] was > 10 µM, the Ki [8] was 31.6 nM and 63.1 nM and the Ki [26] was > 10 µM. For the same molecule, the Ki [27] was > 10 µM, the Ki (D(1A) dopamine receptor [22]) was > 10 µM and the Ki [28] was > 10 µM. The Ki [29] was 100 nM and the Ki [30] was > 10 µM.
